{"source": "patent US20190316211A1", "about": "“ONCOGENIC ALTERNATIVE SPLICING SWITCH OF PACE4 IN CANCER” (SOCIETE DE COMMERCIALISATION DES PRODUITS DE LA RECHERCHE …, priority 2016, published 2019)", "key": {"[1]": {"system": "PACE4 secretion", "assay": "PACE4 secretion assay with post-translational modification inhibitors", "format": "cell-based", "conditions": "24 h secretion in presence of agent", "excerpt": "Immunoprecipitations on transiently transfected HEK293-FT cells were subjected to Sequential Window Acquisition of all Theoretical Mass Spectra (SWATH-MS)-based analysis (FIGS. 7F and G). Proteins identified in each pull-down were used to compare enrichment between the two different isoforms. Both isoforms pulled-down endoplasmic reticulum (ER) proteins with similar enrichment. The two isoforms had clearly different patterns when it came to endosomal compartments-associated proteins such as Arf6, Rab13 or Vps16 with PACE4-altCT pull-down displaying the higher enriched levels for these proteins. […] Considering the slight substitution caused by the splicing in the protein primary structure (FIG. 7A), PTM prediction tools were used to evaluate whether distinctive PTM motifs could be found in the alternative C-terminus compared to the FL one. The predicted PTM sites that scored the highest were S-palmitoylation, non-consensual S-farnesylation and S-geranylgeranylation on the Cys cluster added at the C-terminal extremity of the protein ([…]; see FIG. 8A).\nFor PACE4 secretion assays, cells were plated at equal densities in 6-well plates for 24 h in complete medium. 24 h later, the medium was replaced by the minimal volume required of fresh culture medium (600 μL without FBS) and the cells were either allowed to secrete for the indicated time (for secretion kinetics) or (for inhibitor treatments) allowed to secrete for an additional 24 h in the presence of the indicated concentrations of agents (heparin (Sandoz, Niirnberg, Germany), 2-bromopalmitate (Sigma Aldrich), FTI-277 (Sigma Aldrich), GGTI-2133 (Santa Cruz Biotechnology Inc., Santa Cruz, Calif., USA)"}, "[2]": {"system": "GDF-15 in LNCaP cells", "assay": "GDF-15 cleavage and secretion analysis (western blot, ELISA)", "format": "cell-based", "conditions": "treated LNCaP cells, western blot array and ELISA", "excerpt": "FIG. 10 illustrates the identification and validation of GDF-15 as a PACE4-specific substrate in prostate cancer cells, showing in (A) Western blots of candidate PC substrates across the knockdown, overexpressing and inhibitor-treated DU145 and LNCaP (B) lines; (C) expression of GDF-15 in DU145 and LNCaP cells showing that mature GDF-15 is secreted in the medium; (D) GDF-15 concentrations in DU145 and LNCaP conditioned medium determined by ELISA; (E) GDF-15 cleavage analysis in the LNCaP cells panel; (F) GDF-15 concentrations in the conditioned medium determined by ELISA; (G) GDF-15 cleavage analysis in LNCaP treated with either the ML-peptide or the cell impermeable analog (PEG8-ML); (H) GDF-15 spanning peptide cleavage by PACE4 and furin monitored by HPLC, cleavage site is underlined in the spanning peptide sequence, peptide identity was confirmed by MALDI-TOF upon collection of associated fractions; (I) Western blot analysis of paired adjacent non-cancerous tissues (ANCT) and prostate tissues (PCa); and (J) a blot showing various cancer grades is shown together with the densitometric analysis of 21 tissues pairs (n=6 (3+3), 7 (3+4), 6 (4+3), 2 (5+X) X being 3 and 4).\nGDF-15 is known to supports both the proliferation and clonogenic potential of LNCaP cells, which is also in line with the observed phenotypes for both PACE4 knockdown and overexpressing cells. […]"}, "[3]": {"system": "IGF1R", "assay": "Western blot of PC substrate processing in inhibitor-treated DU145 and LNCaP lines", "format": "cell-based", "conditions": "50 μM, 48 h", "description": "(§1) Western blotting were carried out of (i) cell lines silenced with shPACE4, shfurin and shPC7, (ii) cell lines stably expressing PACE4-FL and PACE4-altCT and (iii) cell lines treated with either the non-selective and irreversible PC inhibitor decanoyl-RVKR-chloromethylketone (CMK) or the PACE4 high affinity peptide inhibitor [dLeu]LLLRVK-amidinobenzylamide (Amba; dL-ML-Amba), herein after called C23 (Levesque et al., 2015, Oncotarget, 6: 3680-3693). In order to test the western blot arrays, known PC substrates were chosen, namely, the insulin-like growth factor 1 receptor (IGF1R) and integrin alpha-6 (ITGA6); two well-accepted furin substrates, were evaluated (FIGS. 10A and B) and E-cadherin. […] In contrast, the overexpression of PACE4-FL and PACE4-altCT did increase the processing of IGF1R and ITGA6 pro-forms, highlighting the cautionary interpretation that are needed in overexpression studies.\n(§2) For substrates analysis, cell lysates were prepared by plating equal number of cells in p100 mm plates in complete medium. 24 h later, medium was replaced by 6 mL of serum-free fresh medium (with treatment if indicated; 50 μM of dL-ML-Amba or dec-RVKR-CMK (Bachem, Torrance, Calif.) and cells were further incubated 48 h. Medium was then collected and centrifuged at 1,000×g for 10 min at room temperature to remove any floating cells, aliquot of medium were then taken (800 μL), flash-frozen in liquid nitrogen, lyophilized overnight, restituted in 100 μL of Laemmli buffer: 8M urea (1:1) and boiled for 5 min until complete resuspension. 25 μL of concentrated medium were loaded on SDS-PAGE (equivalent of 200 μL of culture medium). Cells were carefully washed with PBS and lysed from cell pellet (resulting from 1,000×g centrifugation) using radio-immunoprecipitation assay buffer (RIPA) as described in (Couture et al., 2012). Samples were incubated 20 min on ice and further centrifuged 30 min at 13.000 rpm at 4° C. Protein concentration was determined by bicinchoninic acid assay (Pierce) to load 15 μg on polyacrylamide gels. […] was used as a loading control, for conditioned media, a Coomassie blue staining was routinely performed to control for protein loading."}, "[4]": {"system": "ITGA6", "assay": "Western blot of PC substrate processing in inhibitor-treated DU145 and LNCaP lines", "format": "cell-based", "conditions": "50 μM, 48 h", "description": "as §1, §2"}, "[5]": {"target": "growth differentiation factor 15 (human) (UniProt Q99988)", "sequence (Q99988 195-308)": "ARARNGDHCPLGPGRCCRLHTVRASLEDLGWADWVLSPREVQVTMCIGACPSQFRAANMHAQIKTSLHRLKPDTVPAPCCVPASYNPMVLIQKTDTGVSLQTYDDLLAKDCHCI", "assay": "cell-based or functional assay"}, "[6]": {"target": "Multi-Leucine (ML) peptide"}}}
{"molecule": "COC(=O)[C@H](CCSC)NC(=O)c1ccc(NC[C@@H](N)CS)cc1-c1ccccc1", "note": "[FTI-277]", "values": [{"measurement": "variation in secretion levels", "setting": "[1]", "value": "without any significant variation"}]}
{"molecule": "CCCCCCCCCCCCCCC(Br)C(=O)O", "note": "(stereo not drawn) [2-BP, 2-bromopalmitate]", "values": [{"measurement": "variation in secretion levels", "setting": "[1]", "value": "without any significant variation"}]}
{"molecule": "decanoyl-RVKR-chloromethylketone [CMK]", "values": [{"measurement": "GDF-15 observed in the medium", "setting": "[2]", "value": "virtually no pro-GDF-15 could be observed"}, {"measurement": "processing of IGF1R pro-form", "setting": "[3]", "value": "prevented the processing"}, {"measurement": "processing of ITGA6 pro-form", "setting": "[4]", "value": "prevented the processing"}]}
{"molecule": "CC(C)C[C@H](NC(=O)c1ccc(NCc2cnc[nH]2)cc1-c1cccc2ccccc12)C(=O)O", "note": "[GGTI-2133]", "values": [{"measurement": "variation in secretion levels", "setting": "[1]", "value": "without any significant variation"}]}
{"molecule": "[dLeu]LLLRVK-amidinobenzylamide [C23]", "values": [{"measurement": "GDF-15 observed in the medium", "setting": "[2]", "value": "virtually no pro-GDF-15 could be observed"}, {"measurement": "processing of IGF1R pro-form", "setting": "[3]", "value": "no effect"}, {"measurement": "processing of ITGA6 pro-form", "setting": "[4]", "value": "no effect"}]}
{"molecule": "PACE4-FL (from UniProt P29122 150-969) (enzyme)", "values": [{"measurement": "amount of secreted GDF-15 in conditioned medium (ELISA) (times higher than pLenti6 control cells)", "setting": "[5]", "value": 5}]}
{"molecule": "V5-tagged PACE4-FL (protein) QVRSDPQALYFNDPIWSNMWYLHCGDKNSRCRSEMNVQAAWKRGYTGKNVVVTILDDGIERNHPDLAPNYDSYASYDVNGNDYDPSPRYDASNENKHGTRCAGEVAASANNSYCIVGIAYNAKIGGIRMLDGDVTDVVEAKSLGIRPNYIDIYSASWGPDDDGKTVDGPGRLAKQAFEYGIKKGRQGLGSIFVWASGNGGREGDYCSCDGYTNSIYTISVSSATENGYKPWYLEECASTLATTYSSGAFYERKIVTTDLRQRCTDGHTGTSVSAPMVAGIIALALEANSQLTWRDVQHLLVKTSRPAHLKASDWKVNGAGHKVSHFYGFGLVDAEALVVEAKKWTAVPSQHMCVAASDKRPRSIPLVQVLRTTALTSACAEHSDQRVVYLEHVVVRTSISHPRRGDLQIYLVSPSGTKSQLLAKRLLDLSNEGFTNWEFMTVHCWGEKAEGQWTLEIQDLPSQVRNPEKQGKLKEWSLILYGTAEHPYHTFSAHQSRSRMLELSAPELEPPKAALSPSQVEVPEDEEDYTAQSTPGSANILQTSVCHPECGDKGCDGPNADQCLNCVHFSLGSVKTSRKCVSVCPLGYFGDTAARRCRRCHKGCETCSSRAATQCLSCRRGFYHHQEMNTCVTLCPAGFYADESQKNCLKCHPSCKKCVDEPEKCTVCKEGFSLARGSCIPDCEPGTYFDSELIRCGECHHTCGTCVGPGREECIHCAKNFHFHDWKCVPACGEGFYPEEMPGLPHKVCRRCDENCLSCAGSSRNCSRCKTGFTQLGTSCITNHTCSNADETFCEMVKSNRLCERKLFIQFCCRTCLLAG", "values": [{"measurement": "enzymatic activity (cleavage of the fluorogenic substrate Pyr-Arg-Thr-Lys-Arg-methylcoumaryl-7-amide)", "setting": "[6]", "value": "both isoforms were still equally inhibited by the Multi-Leucine (ML) peptide"}]}
{"molecule": "V5-tagged PACE4-altCT (protein) QVRSDPQALYFNDPIWSNMWYLHCGDKNSRCRSEMNVQAAWKRGYTGKNVVVTILDDGIERNHPDLAPNYDSYASYDVNGNDYDPSPRYDASNENKHGTRCAGEVAASANNSYCIVGIAYNAKIGGIRMLDGDVTDVVEAKSLGIRPNYIDIYSASWGPDDDGKTVDGPGRLAKQAFEYGIKKGRQGLGSIFVWASGNGGREGDYCSCDGYTNSIYTISVSSATENGYKPWYLEECASTLATTYSSGAFYERKIVTTDLRQRCTDGHTGTSVSAPMVAGIIALALEANSQLTWRDVQHLLVKTSRPAHLKASDWKVNGAGHKVSHFYGFGLVDAEALVVEAKKWTAVPSQHMCVAASDKRPRSIPLVQVLRTTALTSACAEHSDQRVVYLEHVVVRTSISHPRRGDLQIYLVSPSGTKSQLLAKRLLDLSNEGFTNWEFMTVHCWGEKAEGQWTLEIQDLPSQVRNPEKQGKLKEWSLILYGTAEHPYHTFSAHQSRSRMLELSAPELEPPKAALSPSQVEVPEDEEDYTAQSTPGSANILQTSVCHPECGDKGCDGPNADQCLNCVHFSLGSVKTSRKCVSVCPLGYFGDTAARRCRRCHKGCETCSSRAATQCLSCRRGFYHHQEMNTCVTLCPAGFYADESQKNCLKCHPSCKKCVDEPEKCTVCKEGFSLARGSCIPDCEPGTYFDSELIRCGECHHTCGTCVGPGREECIHCAKNFHFHDWKCVPACGEGFYPEEMPGLPHKVCRRCDENCLSCAGSSRNCSRCKTGFTQLGTSCITNHTCSNGDIWQRLETFWVVTTGRMYSHPVGGGQECC", "values": [{"measurement": "enzymatic activity (cleavage of the fluorogenic substrate Pyr-Arg-Thr-Lys-Arg-methylcoumaryl-7-amide)", "setting": "[6]", "value": "both isoforms were still equally inhibited by the Multi-Leucine (ML) peptide"}]}
